Measurements published in patent EP1289507B1, “USE OF AN ALDOSTERONE ANTAGONIST FOR THE TREATMENT OR PROPHYLAXIS OF ALDOSTERONE-MEDIATED PATHOGENIC EFFECTS” (priority 2000, dated 2001).

Tests used:
[1] = Pharmacokinetics and absorption after IV and oral [14C]eplerenone in the rat; format: in vivo; conditions: for half-life / clearance: iv, IV 15 mg/kg; for half-life / clearance / Cmax / bioavailability: 15 mg/kg; for Cmax / bioavailability: po; for Cmax: Cmax of total eplerenone
Method: Plasma, urine and fecal samples were analyzed for total radioactivity.

[2] = test system: stroke-prone spontaneously hypertensive rats; conditions: cited from earlier work
[3] = test system: L-NAME/Angiotensin II/NaCl-treated rats; test: L-NAME/Angiotensin II/NaCl model of cardiac and renal injury (14 days); format: in vivo, Male Wistar rats
Method: Animals. Male Wistar rats (n=44), weighing 200 to 225 grams, and obtained from Charles River Laboratories (Wilmington, MA) were used in the study. All animals were housed in a room lighted 12 hours per day at an ambient temperature of 22±1°C. Animals were allowed one week to recover after arrival and had free access to Purina Lab Chow 5001 (Ralston Purina Inc, St. Louis, MO) and tap water until the initiation of the experiment. After initiation of the protocols, animals in all groups were placed in individual metabolic cages, handled and weighed daily. Twenty-four hour fluid intake, food intake and urine output were measured daily. […] On day 14 of L-NAME treatment, animals were decapitated, trunk blood was collected into chilled tubes containing ethylene diamine tetraacetic acid and the heart and kidneys were removed, blotted dry and immediately weighed. […] Drugs. Eplerenone was supplied by G.D. Searle Pharmaceuticals (St. […] Dexamethasone was dissolved in sesame oil and administered as a single subcutaneous dose (12 μg/kg/day) every day. This dose of dexamethasone has been reported to maintain normal weight gain, glomerular filtration rate, and fasting plasma glucose and insulin levels in adrenalectomized rats. Stanton, B., Giebisch G et al. J. Clin. Invest 1985 75:1317-1326. The experiment was concluded on day 14 of L-NAME treatment. […] (Hou J et al. J. Clin. Invest. 1995 96:2469-2477. […] This lower dose induced lesions in stroke-prone spontaneously hypertensive rats. (Rocha R et al. […] Dexamethasone, aldosterone and L-NAME were purchased from Sigma Chemical Co. (St. Louis, MO). […] Surgical Procedure. […] Bilateral adrenalectomy was performed using a dorsolumbar approach, making separate incisions on each side. […] No post operative deaths occurred. Assays and Analyses. Systolic blood pressure was measured in awake animals by tail-cuff plethysmography using a Natsume KN-210 manometer and tachometer (Peninsula Laboratories Inc, Belmont, CA). Rats were warmed at 37°C for 10 minutes and allowed to rest quietly in a Lucite chamber before measurement of blood pressure. Urinary protein concentration was determined in urine collected on the last day of the experiment using the sulfosalicylic acid turbidity method. […] Plasma aldosterone concentration was determined using a standard radioimmunoassay-kit from Diagnostic Products Co. (Los Angeles, CA). Plasma renin activity ("PRA") was determined by radioimmunoassay detection of generated angiotensin I (DiaSorin Inc., Stillwater, MN). Histology. Hearts were stained with collagen specific dye Sirius red for determination of fibrosis as reported elsewhere. (Young M et al. Am. J. Physiol 1995 269:[…]-[…]). Interstitial collagen was determined using an automated image analyzer. The hearts were also stained with hematoxylin and eosin for light microscopic analysis. Two or three slices of different sections of the heart containing both right and left ventricle were analyzed from each animal. […] Glomerular damage, when present, was characterized as the presence of either segmental or global sclerosis with ischemic or thrombotic changes. Renal arterial and arteriolar damage was categorized as the presence of fibrinoid necrosis of the vascular wall. The renal arterial and arteriolar profiles presenting damage were counted and the number of injured vessels per section was divided by the number of glomeruli in the same section in order to normalize for the amount of tissue examined. […] Statistical analysis. Data were tested for normality using the Kolmogorov-Smimov test. Systolic blood pressure was analyzed using repeated measures-analysis of variance for time and treatment group. One-way analysis of variance was used for normally distributed data with one grouping variable. Post-hoc analysis was performed using Newman Keuls multiple-comparison test. Data that were not normally distributed were analyzed with the Kruskal-Wallis test. Subsequently, selected pairwise comparisons were made using the exact Wilcoxon test. […]

[4] = test system: patients with hypertension; test: Clinical efficacy in hypertension: randomized double-blind study, cuff and ambulatory blood pressure; format: in vivo
Method: A multicenter, randomized, double-blind, parallel group study was conducted in patients with hypertension. […] The study consisted of a two-week pretreatment period for completion of screening procedures and discontinuation of any current antihypertensive medication(s). The screening period was followed by a four-week single-blind placebo lead-in treatment period.
The primary efficacy measure was the change from baseline in cuff diastolic blood pressure measured at trough as compared to placebo. Secondary efficacy measures included changes in cuff assessed trough systolic blood pressure and changes in average 24-hour diastolic and systolic blood pressure assessed by ambulatory blood pressure monitoring. Safety was assessed by conducting routine clinical lab tests, physical exams, ECGs, and monitoring for adverse events.

[5] = end of experiment, Epl 100 mg/kg/day p.o., ALDO 40 µg/kg/day in adrenalectomized rats

SMILES: COC(=O)[C@@H]1CC2=CC(=O)CC[C@]2(C)[C@@]23O[C@@H]2C[C@@]2(C)[C@@H](CC[C@@]24CCC(=O)O4)[C@H]13 [Eplerenone, Pregn-4-ene-7,21-dicarboxylic acid, 9,11-epoxy-17-hydroxy-3-oxo-, γ-lactone, methyl ester, (7α, 11α, 17β)-]
- systemic availability of total radioactivity ([1]; oral 15 mg/kg, female rat): 66.4%
- mean Cmax of total radioactivity ([1]; oral 15 mg/kg, female rats): 7.67 µg equivalents/mL
- systemic availability of total radioactivity ([1]; oral 15 mg/kg, male rat): 59.6%
- mean Cmax of total radioactivity ([1]; oral 15 mg/kg, male rats): 7.64 µg equivalents/mL
- half-life ([1]; rat, plasma, elimination half-life of eplerenone, female rat): 1.14 h
- half-life ([1]; rat, plasma, elimination half-life of total eplerenone, female rat, closed plus open form): 1.14 h
- half-life ([1]; rat, plasma, elimination half-life of total eplerenone, male rat, lactone ring closed form plus open form): 1.01 h
- clearance ([1]; rat, plasma, plasma clearance (CL) of eplerenone, female rat): 20 mL/min/kg
- clearance ([1]; rat, plasma, plasma clearance (CL) of total eplerenone, female rat): 11.6 mL/min/kg
- clearance ([1]; rat, plasma, plasma clearance (CL) of total eplerenone, male rat): 16.4 mL/min/kg
- Cmax ([1]; rat, plasma, oral 15 mg/kg, female rat): 6350 ng/mL
- Cmax ([1]; rat, plasma, oral 15 mg/kg, male rat): 3200 ng/mL
- bioavailability ([1]; rat, plasma, systemic availability of eplerenone, oral 15 mg/kg, female rat): 66.1%
- bioavailability ([1]; rat, plasma, systemic availability of eplerenone, oral 15 mg/kg, male rat): 25.6%
- bioavailability ([1]; rat, plasma, systemic availability of total eplerenone, oral 15 mg/kg, female rat): 74.2%
- bioavailability ([1]; rat, plasma, systemic availability of total eplerenone, oral 15 mg/kg, male rat): 29.4%
- Tmax ([1]; rat, plasma, oral 15 mg/kg, male rats): 0.5 h
- proteinuria, renal lesions and hypertension [2]: prevented proteinuria and renal lesions but not severe hypertension
- cardiac injury (myocardial necrosis), histology ([3]; Figures A-3B, A-4): markedly reduced
- HW/BW ([3]; cardiac hypertrophy index, Epl 100 mg/kg/day p.o., ALDO 40 µg/kg/day in adrenalectomized rats): 3.46 ± .05 mg/g
- cardiac hypertrophy ([3]; compared to L-NAME/Angiotensin II/NaCl-treated rats): significantly reduced cardiac hypertrophy
- HW [3, 5]: 1144 ± 4 mg
- SBP [3, 5]: 177 ± 8 mmHg
- urinary protein excretion (24 hour), proteinuria ([3]; end of two-week treatment, Figure A-5): prevented the development of proteinuria
- extent of hypertension observed at the end of the experiment ([3]; eplerenone 100 mg/kg/day p.o., Figure A-1): not appreciably influenced
- reduction in renal arteriopathy damage compared to L-NAME/AngII/NaCl treated rats ([3]; histopathologic scores, P=0.1 (not significant)): 60%
- ABPM DBP, adjusted mean change from baseline to final visit ([4]; 50 mg/day (25 BID)): -4.1 mm Hg
- ABPM SBP, adjusted mean change from baseline to final visit ([4]; 50 mg/day (25 BID)): -7.5 mm Hg
- Cuff SBP, adjusted mean change from baseline to final visit ([4]; 50 mg/day (25 BID)): -8.1 mm Hg
- Cuff DBP, adjusted mean change from baseline to final visit ([4]; 50 mg/day (25 BID), eight weeks): -4.4 mm Hg
- ABPM DBP, adjusted mean change from baseline to final visit ([4]; 50 mg/day (50 QD)): -5.1 mm Hg
- ABPM SBP, adjusted mean change from baseline to final visit ([4]; 50 mg/day (50 QD)): -6.2 mm Hg
- Cuff DBP, adjusted mean change from baseline to final visit ([4]; 50 mg/day (50 QD)): -4.5 mm Hg
- Cuff SBP, adjusted mean change from baseline to final visit ([4]; 50 mg/day (50 QD)): -4.4 mm Hg
- ABPM DBP, adjusted mean change from baseline to final visit ([4]; 100 mg/day (50 BID)): -6.6 mm Hg
- ABPM SBP, adjusted mean change from baseline to final visit ([4]; 100 mg/day (50 BID)): -11.6 mm Hg
- Cuff DBP, adjusted mean change from baseline to final visit ([4]; 100 mg/day (50 BID)): -7.8 mm Hg
- Cuff SBP, adjusted mean change from baseline to final visit ([4]; 100 mg/day (50 BID)): -11.7 mm Hg
- ABPM DBP, adjusted mean change from baseline to final visit ([4]; 100 mg/day (100 QD)): -5.6 mm Hg
- ABPM SBP, adjusted mean change from baseline to final visit ([4]; 100 mg/day (100 QD)): -9.6 mm Hg
- Cuff DBP, adjusted mean change from baseline to final visit ([4]; 100 mg/day (100 QD)): -4.4 mm Hg
- Cuff SBP, adjusted mean change from baseline to final visit ([4]; 100 mg/day (100 QD)): -7.9 mm Hg
- ABPM DBP, adjusted mean change from baseline to final visit ([4]; 400 mg/day (200 BID)): -9.0 mm Hg
- ABPM SBP, adjusted mean change from baseline to final visit ([4]; 400 mg/day (200 BID)): -16.1 mm Hg
- Cuff DBP, adjusted mean change from baseline to final visit ([4]; 400 mg/day (200 BID)): -8.9 mm Hg
- Cuff SBP, adjusted mean change from baseline to final visit ([4]; 400 mg/day (200 BID)): -14.8 mm Hg
- ABPM DBP, adjusted mean change from baseline to final visit ([4]; 400 mg/day (400 QD)): -7.7 mm Hg
- ABPM SBP, adjusted mean change from baseline to final visit ([4]; 400 mg/day (400 QD)): -13.7 mm Hg
- Cuff DBP, adjusted mean change from baseline to final visit ([4]; 400 mg/day (400 QD)): -8.7 mm Hg
- Cuff SBP, adjusted mean change from baseline to final visit ([4]; 400 mg/day (400 QD)): -15.0 mm Hg
- Peak to trough ratios ([4]; QD and BID regimens, all doses): 1.04 - 1.10
- gynecomastia ([4]; eight-week double-blind treatment): no reports of gynecomastia
- tolerability ([4]; incidence of adverse events similar to placebo): well tolerated
